Assay results from patent US20180303845A1, “USE OF TLR8 AGONISTS TO TREAT CANCER” (VentiRx Pharmaceuticals, Inc., priority 2015, published 2018).

Experiments:
EGFR^| UM-22B HNC cells = experiment: 51Cr release assay of cetuximab-mediated ADCC by motolimod-pre-treated PBMC or isolated NK; assay type: cell-based
Procedure: (§1) PBMC cytokine release was also measured using a multiplex cytokine assay. FcγR III-158 genotype was determined using a quantitative PCR-based assay kit. Significant differences in ADCC by FcγR Ma or TLR8 genotype were determined using a Kruskal-Wallis one-way analysis of variance, and a post hoc Mann-Whitney non-parametric t test was performed for differences between groups. For cytokine analysis, a Mann-Whitney non-parametric test was performed.

PBMC = PBMC cytokine release, multiplex cytokine assay; assay type: cell-based
Procedure: as §1

HNC = conditions: cited from earlier work
[1] = test system: recurrent or metastatic SCCHN; conditions: cited from earlier work

SMILES: CCCN(CCC)C(=O)C1=Cc2ccc(-c3ccc(C(=O)N4CCCC4)cc3)cc2N=C(N)C1 [motolimod, 2-amino-N,N-dipropyl-8-[4-(pyrrolidin-1-ylcarbonyl)phenyl]-3H-1-benzazepine-4-carboxamide]
- cetuximab-mediated ADCC by TLR8 stimulated PBMC from HNC patients (EGFR^| UM-22B HNC cells; PBMC from HNC patients, p=0.0262): more avid effectors
- enhancement of ADCC lytic activity in NK, FcγR IIIc FF genotype (EGFR^| UM-22B HNC cells; motolimod 250 nM 18 hr pre-treatment, cetuximab 10 μg/mL, 4 hr, FF genotype): 2.6 fold
- enhancement of ADCC lytic activity in NK, VF genotype (EGFR^| UM-22B HNC cells; motolimod 250 nM 18 hr pre-treatment, cetuximab 10 μg/mL, 4 hr, VF genotype): 1.7 fold
- enhancement of ADCC lytic activity in NK, VV genotype (EGFR^| UM-22B HNC cells; motolimod 250 nM 18 hr pre-treatment, cetuximab 10 μg/mL, 4 hr, VV genotype): 1.8 fold
- cetuximab-mediated ADCC against HNC cells (EGFR^| UM-22B HNC cells; summary statement): enhanced
- IFN-γ secretion, treated versus untreated PBMC (PBMC; p<0.0001): significantly higher levels
- TNF-α secretion, treated versus untreated PBMC (PBMC; p<0.0001): significantly higher levels
- IL-12p40 secretion, treated versus untreated PBMC (PBMC; p=0.0002): significantly higher levels
- IL-12p70 secretion, treated versus untreated PBMC (PBMC; p=0.03): significantly higher levels
- cetuximab-mediated ADCC and DC IVS of CD8^+ T cells in HNC (HNC; in vitro): significantly enhances
- DC maturation and cross-priming of CD8^+ cells (HNC; motolimod in combination with cetuximab): enhances
- clinical activity (pharmacologic evidence) ([1]; in combination with cetuximab, escalating doses of motolimod): dose-dependent clinical activity
- safety profile ([1]; motolimod days 1, 8, 15 in combination with weekly cetuximab, 28-day cycles): acceptable safety profile
